Laboratory results taken from US20240270768A1, “A METHOD FOR OBTAINING L-GLUFOSINATE” (UPL LIMITED, priority 2021, published 2024).

Legend:
[1] = Storage stability of L-glufosinate quinine tetrahydrate salt under standard conditions, analysed by HPLC; assay type: physicochemical
Protocol: HPLC method: • A) Column—Zorbax SB-C8 (250×4.6 mm i.d., 5 micron) • B) Mobile Phase—0.1% OPA: Acetonitrile (v/v) 40:60 • C) Flow—1.0 ml/min. • D) UV-Wavelength—230 nm • E) Injection volume—5 μl • F) Column temperature 40 °C • G) Run time—10 min
L-glufosinate quinine tetrahydrate salt obtained in example 1 was stored under standard conditions (i.e. room temperature, normal pressure, air atmosphere) for 431 days.

[2] = versus other L-glufosinate quinine hydrates (dihydrate, hexahydrate, dodecahydrate)

C=C[C@H]1CN2CC[C@H]1C[C@H]2[C@H](O)c1ccnc2ccc(OC)cc12.CP(=O)(O)CC[C@H](N)C(=O)O.O.O.O.O [L-glufosinate quinine tetrahydrate salt]
Duration of desirable stability on storage ([1]; ambient conditions and air atmosphere): more than 430 days | Moisture content after storage ([1]; stored 431 days at room temperature, normal pressure, air atmosphere, initial value 12.04% (Example 1)): 12.39% | Loss on drying after storage ([1]; stored 431 days at room temperature, normal pressure, air atmosphere, initial value 12.32% (Example 1)): 12.27% | L-glufosinate acid content (by HPLC) after storage ([1]; stored 431 days at room temperature, normal pressure, air atmosphere, initial value 32.70% (Example 1)): 33.13% | Quinine content (by HPLC) after storage ([1]; stored 431 days at room temperature, normal pressure, air atmosphere, initial value 54.34% (Example 1)): 53.14% | Storage stability, thermal stability and hygroscopicity compared to other hydrates [2]: improved storage stability, thermal stability and non-hygroscopicity as compared to other hydrates
